In ChEMBL document CHEMBL1133947, “Synthesis and biological properties of new 1beta-methylcarbapenems containing heteroaromatic thioether moiety” (Bioorg Med Chem Lett, 2001):
≈ marks a conversion by molar mass, not a printed value.

What was measured:
Escherichia coli [1] = assay: In vitro antibacterial activity against Escherichia coli 078; format: functional
Pseudomonas aeruginosa [2] = assay: In vitro antibacterial activity against Pseudomonas aeruginosa 9027; format: functional
Staphylococcus aureus [3] = assay: In vitro antibacterial activity against Staphylococcus aureus SG 511; format: functional
Pseudomonas aeruginosa [4] = assay: In vitro antibacterial activity against Pseudomonas aeruginosa 1771M; format: functional
Klebsiella aerogenes = assay: In vitro antibacterial activity against Klebsiella aerogenes 1522E; format: functional
Staphylococcus aureus [5] = assay: In vitro antibacterial activity against Staphylococcus aureus 503; format: functional
Escherichia coli [6] = assay: In vitro antibacterial activity against Escherichia coli 1507E; format: functional
Sus scrofa = organism: Sus scrofa; assay: DHP-I stability of compound relative to t1/2 of hydrolysis to meropenem; format: functional; parameters: scale not given: the % may be the effect or the level left
Staphylococcus aureus [7] = assay: In vitro antibacterial activity against Staphylococcus aureus 285; format: functional
Enterobacter cloacae = assay: In vitro antibacterial activity against Enterobacter cloacae 1321E; format: functional
Salmonella typhimurium = assay: In vitro antibacterial activity against Salmonella Typhimurium; format: functional, Salmonella enterica subsp. enterica serovar Typhimurium; details: Salmonella enterica
Streptococcus pyogenes = assay: In vitro antibacterial activity against Streptococcus pyogenes 308A; format: functional
[8] = Clearance of compound after iv administration of 20 mg/kg dose in rat; format: ADME, organism-based; parameters: dose 20 mg/kg, route intravenous; details: in vivo
[9] = Area under curve of compound after iv administration of 20 mg/kg dose in rat; format: ADME, organism-based; parameters: dose 20 mg/kg, route intravenous; details: in vivo
[10] = Half life of compound after iv administration of 20 mg/kg dose in rat; format: ADME, organism-based; parameters: dose 20 mg/kg, route intravenous; details: in vivo

MIC (Escherichia coli [1]) [µg/mL]	MIC (Pseudomonas aeruginosa [2]) [µg/mL]	MIC (Staphylococcus aureus [3]) [µg/mL]	MIC (Pseudomonas aeruginosa [4]) [µg/mL]	MIC (Klebsiella aerogenes) [µg/mL]	MIC (Staphylococcus aureus [5]) [µg/mL]	MIC (Escherichia coli [6]) [µg/mL]	MIC (Staphylococcus aureus [7]) [µg/mL]	MIC (Enterobacter cloacae) [µg/mL]	MIC (Salmonella typhimurium) [µg/mL]	MIC (Streptococcus pyogenes) [µg/mL]	clearance [8] [mL/min/kg]	AUC [9] [ng·h/mL]	half-life [10] [min]	SMILES	Stability (Sus scrofa) [%]
0.007 (≈ 0.0153 µM)	3.12 (≈ 6.84 µM)	0.025 (≈ 0.0548 µM)	0.195 (≈ 0.427 µM)	0.025 (≈ 0.0548 µM)	0.007 (≈ 0.0153 µM)	0.007 (≈ 0.0153 µM)	0.025 (≈ 0.0548 µM)	0.013 (≈ 0.0285 µM)	0.025 (≈ 0.0548 µM)	0.004 (≈ 0.00876 µM)	–	–	–	Cc1nnc(SC[C@@H]2C[C@H](SC3=C(C(=O)O)N4C(=O)[C@H]([C@@H](C)O)[C@H]4[C@H]3C)CN2)s1	108
0.049 (≈ 0.112 µM)	3.12 (≈ 7.16 µM)	0.025 (≈ 0.0573 µM)	0.391 (≈ 0.896 µM)	0.098 (≈ 0.224 µM)	0.025 (≈ 0.0573 µM)	0.049 (≈ 0.112 µM)	0.049 (≈ 0.112 µM)	0.049 (≈ 0.112 µM)	0.098 (≈ 0.224 µM)	< 0.002	–	–	–	C[C@@H](O)[C@H]1C(=O)N2C(C(=O)O)=C(S[C@@H]3CN[C@H](CSc4ncccn4)C3)[C@H](C)[C@H]12	89
0.025 (≈ 0.0495 µM)	50 (≈ 99.1 µM)	0.098 (≈ 0.194 µM)	0.781 (≈ 1.55 µM)	0.049 (≈ 0.0971 µM)	0.025 (≈ 0.0495 µM)	0.025 (≈ 0.0495 µM)	0.098 (≈ 0.194 µM)	0.025 (≈ 0.0495 µM)	0.049 (≈ 0.0971 µM)	0.007 (≈ 0.0139 µM)	–	–	–	C[C@@H](O)[C@H]1C(=O)N2C(C(=O)O)=C(S[C@@H]3CN[C@H](CSc4nccc(C(F)(F)F)n4)C3)[C@H](C)[C@H]12	–
0.013 (≈ 0.0294 µM)	1.56 (≈ 3.53 µM)	0.025 (≈ 0.0565 µM)	0.195 (≈ 0.441 µM)	0.025 (≈ 0.0565 µM)	0.013 (≈ 0.0294 µM)	0.013 (≈ 0.0294 µM)	0.049 (≈ 0.111 µM)	0.013 (≈ 0.0294 µM)	0.025 (≈ 0.0565 µM)	0.007 (≈ 0.0158 µM)	10.2	36900	43.1	C[C@@H](O)[C@H]1C(=O)N2C(C(=O)O)=C(S[C@@H]3CN[C@H](CSc4cnns4)C3)[C@H](C)[C@H]12	167
0.195 (≈ 0.432 µM)	25 (≈ 55.4 µM)	0.025 (≈ 0.0554 µM)	6.25 (≈ 13.8 µM)	0.195 (≈ 0.432 µM)	0.195 (≈ 0.432 µM)	0.195 (≈ 0.432 µM)	0.049 (≈ 0.109 µM)	0.098 (≈ 0.217 µM)	0.195 (≈ 0.432 µM)	< 0.002	–	–	–	C[C@@H](O)[C@H]1C(=O)N2C(C(=O)O)=C(S[C@@H]3CN[C@H](CSc4ncccc4O)C3)[C@H](C)[C@H]12	–
0.049 (≈ 0.0995 µM)	12.5 (≈ 25.4 µM)	< 0.049	1.56 (≈ 3.17 µM)	0.098 (≈ 0.199 µM)	0.025 (≈ 0.0507 µM)	0.098 (≈ 0.199 µM)	< 0.049	0.049 (≈ 0.0995 µM)	0.098 (≈ 0.199 µM)	< 0.002	–	–	–	CNC(=O)c1cccnc1SC[C@@H]1C[C@H](SC2=C(C(=O)O)N3C(=O)[C@H]([C@@H](C)O)[C@H]3[C@H]2C)CN1	–
0.025 (≈ 0.0569 µM)	1.56 (≈ 3.56 µM)	0.049 (≈ 0.111 µM)	0.195 (≈ 0.444 µM)	0.098 (≈ 0.223 µM)	0.025 (≈ 0.0569 µM)	0.049 (≈ 0.111 µM)	0.098 (≈ 0.223 µM)	0.049 (≈ 0.111 µM)	0.098 (≈ 0.223 µM)	0.013 (≈ 0.0296 µM)	–	–	–	C[C@@H](O)[C@H]1C(=O)N2C(C(=O)O)=C(S[C@@H]3CN[C@H](CSc4nncn4C)C3)[C@H](C)[C@H]12	93
–	–	–	–	–	–	–	–	–	–	–	–	–	3.46	C[C@@H](O)[C@H]1C(=O)N2C(C(=O)O)=C(SCCNC=N)C[C@H]12.O [IMIPENEM]	–
0.025 (≈ 0.0567 µM)	0.781 (≈ 1.77 µM)	0.025 (≈ 0.0567 µM)	0.195 (≈ 0.443 µM)	0.025 (≈ 0.0567 µM)	0.025 (≈ 0.0567 µM)	0.025 (≈ 0.0567 µM)	0.049 (≈ 0.111 µM)	0.025 (≈ 0.0567 µM)	0.025 (≈ 0.0567 µM)	0.004 (≈ 0.00908 µM)	–	–	11	C[C@@H](O)[C@H]1C(=O)N2C(C(=O)O)=C(S[C@@H]3CN[C@H](CSc4nnnn4C)C3)[C@H](C)[C@H]12	88
0.049 (≈ 0.109 µM)	25 (≈ 55.5 µM)	0.049 (≈ 0.109 µM)	6.25 (≈ 13.9 µM)	0.098 (≈ 0.217 µM)	0.025 (≈ 0.0555 µM)	0.098 (≈ 0.217 µM)	0.098 (≈ 0.217 µM)	0.098 (≈ 0.217 µM)	0.098 (≈ 0.217 µM)	0.007 (≈ 0.0155 µM)	–	–	–	Cc1ccnc(SC[C@@H]2C[C@H](SC3=C(C(=O)O)N4C(=O)[C@H]([C@@H](C)O)[C@H]4[C@H]3C)CN2)n1	122

SMILES	MIC (Escherichia coli [1]) [µg/mL]	MIC (Pseudomonas aeruginosa [2]) [µg/mL]	MIC (Staphylococcus aureus [3]) [µg/mL]	MIC (Pseudomonas aeruginosa [4]) [µg/mL]	MIC (Klebsiella aerogenes) [µg/mL]	MIC (Staphylococcus aureus [5]) [µg/mL]	MIC (Escherichia coli [6]) [µg/mL]	MIC (Staphylococcus aureus [7]) [µg/mL]	MIC (Enterobacter cloacae) [µg/mL]	MIC (Salmonella typhimurium) [µg/mL]	MIC (Streptococcus pyogenes) [µg/mL]	clearance [8] [mL/min/kg]	AUC [9] [ng·h/mL]	half-life [10] [min]	Stability (Sus scrofa) [%]
C[C@@H](O)[C@H]1C(=O)N2C(C(=O)O)=C(S[C@@H]3CN[C@H](C(=O)N(C)C)C3)[C@H](C)[C@H]12 [MEROPENEM]	0.025 (≈ 0.0652 µM)	0.195 (≈ 0.509 µM)	0.195 (≈ 0.509 µM)	0.049 (≈ 0.128 µM)	0.049 (≈ 0.128 µM)	0.098 (≈ 0.256 µM)	0.025 (≈ 0.0652 µM)	0.195 (≈ 0.509 µM)	0.025 (≈ 0.0652 µM)	0.049 (≈ 0.128 µM)	0.013 (≈ 0.0339 µM)	–	–	–	100
